US6395281B1, “Cosmetic skin conditioning compositions containing red yeast rice extract” (Unilever Home & Personal Care USA, a division of Conopco, …, priority 1999, dated 2002)

Key:
[1] = system: Neonatal human dermal fibroblasts; test: Procollagen I production by fibroblasts (dot blot); assay type: cell-based; conditions: 50 μg; for Procollagen 1 production: densitometer reading
Experimental: This example measured production of procollagen I by fibroblasts in response to treatment with various test compounds.
Methodology for determination of (Pro) Collagen-I protein expression using Dot Blot technique:
Neonatal human dermal fibroblasts (passage 4 to 8) were purchased from Clonetics Corp. San Diego, Calif. All materials for cell culture were purchased from Life technologies, New York and used in passages 5-10. Cells were seeded at a density of approximately 7,500/well in the inner 48 wells of a 96-well plate in DMEM (Dulbecco's Modified Eagle's Medium), high glucose supplemented with 2 mM L-glutamine, 10% fetal bovine serum, and antibiotic and. antimycotic solutions. Cells were grown to confluence and washed with serum free, phenol red free DMEM and cells dosed with 200 μl actives in media. Each dosing was replicated in a total of six to twelve wells. After 24 hours, the test compound solution or the control solution was removed and cells re-dosed with 100 μl actives in media. After 24 hours incubation, remove media and store at 4° C. with protease inhibitor (Aprotinin 1:200) until further use. The test compound solution was then diluted in 1X Tris buffered saline (pH=8) buffer (approximately 20 μl media in 200 μl buffer).
PVDF membrane soaked in methanol and 2 filter papers in 1X TBS (pH=8). Bio-Rad dot blot apparatus was set up with filter paper on bottom, membrane on top, tighten, added 100 μl TBS per well. Vacuum dry. Vortex or mix, then load 100 μl diluted sample per well; let it sit for 15 minutes and then vacuum dry. Remove membrane from the apparatus, cut off excess, and notch bottom right comer for orientation. Place membrane in blocking buffer (5% milk powder in 1X TBS-Tween) for 1 hour at room temperature with shaking. […] Remove membrane, do a 10 minute wash three to five times in TBS/0.1% Tween. Incubate for 1 hour at RT or O/N at 4° C. in 5 ml 1:1000 anti-rat conjugated alkaline phosphatase (AP) secondary antibody in 1-% milk in TBS-T in a sealed bag with shaking. Wash membrane for 15 minutes five to eight times with TBS-T, and final rinse with 1X PBS. The membrane was developed using Chemiluminiscent substrate (Boehringer Mannheim, Ind.) and results were analysed using a laser densitometer (Bio-Rad instrument). Fold increase was calculated as a ratio of densitometer reading for cells treated with a test compound over control.

ZR75 cells = test: Assay for estrogen like activity: [methyl-3H] thymidine incorporation in ZR75 cells; assay type: cell-based, human; conditions: 0.27 × 10^−6% (10 nM)
Source text: The ZR75 cell line is a ductal breast carcinoma cell line, originally isolated from malignant mammary epithelium of a person (10). The chromosome number is triploid and the trypsin-Giemsa banding patterns indicate a unique karyotype distinct from HeLa cells. While containing receptors for estrogen, insulin, progesterone and other hormones, ZR75 cells only respond through an increase in proliferation to estrogen and insulin. The cell line contains high affinity estrogen-specific receptors. Therefore, this cell line is used for testing estrogen-like activity.
The cells are split 1:2 once every week and seeded in 24 well plates at one hundred thousand cells per milliliter per well for the assay.
After growing for twenty-four hours, the media was removed, the cells were washed with PBS and one ml of RPMI 1640 without serum was readded. Different dilutions of the red yeast rice extract were then dosed directly into each well. After another twenty-four hours, one microCurie of [methyl-3H] thymidine was added to the media in each well. The media was removed after twenty-four hours to begin the thymidine uptake assay. […] The samples were transferred to scintillation vials and after adding five milliliters of counting fluid (scintiverse), the vials were counted for five minutes each on a setting for tritium. […] Data was calculated as % of control to normalize for experiment-to-experiment variation.

human sebocytes = test: Sebum secretion by sebocytes (14C-acetate incorporation); assay type: cell-based; conditions: 0.001%
Experimental: This example investigated the effect of red yeast rice on sebum secretion by sebocytes. Secondary cultures of human sebocytes obtained from an adult […] were grown in 48-well tissue culture plates (Costar Corp.; Cambridge, Mass.) until confluent. Sebocyte growth medium consisted of Clonetics Keratinocyte Basal Medium (KBM) supplemented with 14 μg/ml bovine pituitary extract, 0.4 μg/ml hydrocortisone, 5 μg/ml insulin, 10 ng/ml epidermal growth factor, 1.2×10−10 M cholera toxin, 100 units/ml penicillin, and 100 μg/ml streptomycin. All cultures were incubated at 37° C. in the presence of 7.5% CO2. Medium was changed three times per week. On the day of experimentation, the growth medium was removed and the sebocytes washed three times with sterile Dulbecco's Modified Eagle Medium (DMEM; phenol red free). Fresh DMEM was added to each sample (triplicates in Table 4 and duplicated in Table 5) with 5 microliter of test agent solubilized in ethanol. Controls consisted of addition of ethanol alone. Each plate was returned to the incubator for 20 hours followed by the addition of 14C-acetate buffer (5 mM final concentration, 56 mCi/mmol specific activity). […] Radioactive label remaining in the sebocytes was harvested and counted using a Beckman scintillation counter. […]

[2] = system: Cellular Retinoic Acid Binding Protein 2 (CRABP-2) in human adult fibroblasts; test: CRABP-2 production by fibroblasts (Western blot); assay type: cell-based; conditions: 10e-6M retinoid alone, 48 hours
Experimental: This example investigated the effect of various tested compounds on CRABP-2 production by fibroblasts.
Human adult fibroblasts obtained from su n-protected inner arm of 25-30 year […] volunteer were used in this. Cells were grown in 1:1 DMEM/Hams F12 media containing 10% FBS, maintained at 37° C. in a 5% CO2 atmosphere under normal atmospheric oxygen tension. Third passage adult fibroblasts were grown in DMEM media with 10% FBS in 12-well plates at a seeding density of 2500 cells/ml/well. The cells at 80% confluence were rinsed in serum free and phenol red free (PRF) DMEM media twice. Pre-treatment with test compound for 4 hours was conducted and then dosed with retinoids and was incubated for 48 hours.
After the incubation, the wells were was ed twice with 1X PBS and the cell monolayer was harvested in 100 μl cell lysis buffer (contains 1X PBS, 1% TritonX, 0.5% sodium deoxycholate, 0.1% SDS containing p tease inhibitor (10 mg/ml PMSF in isopropanol, 10 μl/ml). The suspension was spun at 14000 rpm for 10 minutes, the supernatant collected and an aliquot of this supematant was used for protein quantification. Protein concentration was determined using Pierce protein kit. The remainder of 100 μl supernatant (cell lysate) was denatured in a mixture of 40 μl sample buffer (NOVEX) and 0.5% Beta mercaptoethanol (IBME) and by boiling the sample for 5 minutes. Equal amount of protein was then loaded onto 16% Tris-glycine gels for protein analysis by SDS page and Western Immuno-blotting for CRABP-2 protein expression.
The gels were run and transferred to nitrocellulose blots and Western Blotting was carried out using monoclonal antibodies to CRABP-2 according to standard procedures. The CRABP-2 protein band was visualized in the Western Blots using the chemiluminescence system obtained from Santa Cruz Biotechnology (SantaCruz, Calif.). The bands in the film were quantitated by densitometric scanning, the-data from triplicate samples were calculated as % of control and expressed in the following tables as % increase over control (with control as 100%) +/−SD of triplicates.

Compound | Procollagen 1 production % of Control [1] | Procollagen 1 production [1] | CRABP-2 % of Control [2] | CRABP-2 OD +/− SD [2] | other results
CCCCCCCCCCCCCCCC(=O)OC[C@H](O)[C@H]1OC(=O)C(O)=C1O [Ascorbyl Palmitate, ascorbyl palmitate] | 103 +/− 48% | 0.775 +/− 0.36 |  |  | 
C[C@]12CC[C@@H]3c4ccc(O)cc4CC[C@H]3[C@@H]1CC[C@@H]2O [Estradol, estradiol] |  |  |  |  | cpm +/− SD (thymidine incorporation) (ZR75 cells): 263982 +/− 711 cpm; activity at 0.01 µM (ZR75 cells; Homo sapiens, ZR75, read-out: thymidine incorporation % of control): 224%
O=S1(=O)OC(c2ccc(O)cc2)(c2ccc(O)cc2)c2ccccc21 [Phenol Red] |  |  |  |  | % Reduction (sebum, 14C-acetate label) (human sebocytes; first Table 4 (triplicates)): 83.4%; % Reduction (sebum, 14C-acetate label) (human sebocytes; second table, printed as Table 4 (Table 5, duplicates)): 83.4%
CC1=C(/C=C/C(C)=C/C=C/C(C)=C/CO)C(C)(C)CCC1 [Retinol] |  |  | 153 +/− 5% | 1.91 +/− 0.06 OD | 
CC(=O)OC/C=C(C)/C=C/C=C(C)/C=C/C1=C(C)CCCC1(C)C [Retinyl Acetate] |  |  | 398 +/− 157% | 3.86 +/− 0.28 OD | 
CCCCC/C=C\C/C=C\CCCCCCCC(=O)OC/C=C(C)/C=C/C=C(C)/C=C/C1=C(C)CCCC1(C)C [Retinyl linoleate] |  |  | 156 +/− 13% | 1.96 +/− 0.16 OD | 
CCCCCCCCCCCCCCCC(=O)OC/C=C(C)/C=C/C=C(C)/C=C/C1=C(C)CCCC1(C)C [Retinyl palmitate] |  |  | 178 +/− 33% | 2.00 +/− 0.04 OD | 
O=C1O[C@H]([C@@H](O)CO)C([O-])=C1OP(=O)([O-])[O-].[Na+].[Na+].[Na+] [Sodium ascorbyl phosphate, sodium ascorbyl phosphate] | 116 +/− 27% | 0.871 +/− 0.2 |  |  | 
O=C1O[C@H]([C@@H](O)CO)C(O)=C1O [Vitamin C] | 175 +/− 37% | 1.311 +/− 0.28 |  |  | 
